Test results reported in PMC8877233, “The Hydrophobicity and Antifungal Potentiation of Burkholdine Analogues” (Molecules, 2022).
Values after ≈ are worked out from the molar mass of the structure shown. Starred links: 1 amine or outer side, 2 acyl side, 3 side chain; linkers in the order of their positions; H or OH if unused. Positions of bridges follow the written chain, without caps; N, C: chain ends. Non-standard residues stand in square brackets, D forms with d. Residues, ends and D or L forms follow the SMILES beside them. *: point of attachment. X12 = CCCCCCCCCCC(=O)N[C@H](C(=O)NC[C@H](CC(=O)[*:1])N[*:2])[C@@H](C)O; X11 = CCCCCCCCNC(=O)[C@H](O)[C@@H](O)C(=O)NC[C@H](CC(=O)[*:1])N[*:2]; X10 = CCCCCCCCCCCC(=O)N[C@@H](CO)C(=O)NC[C@@H](CC(=O)[*:1])N[*:2]; X13 = CCCCCCCCCCC(=O)N[C@@H](CO)C(=O)NC[C@H](CC(=O)[*:1])N[*:2]; X5 = CCCCCCCCCCCC(=O)N[C@@H](CO)C(=O)NC[C@H](CC(=O)[*:1])N[*:2]; X6 = CCCCCCCCCCC(=O)N[C@@H](CO)C(=O)NC[C@@H](CC(=O)[*:1])N[*:2]; X7 = CCCCCCCCCCCC(=O)N[C@H](CO)C(=O)NC[C@@H](CC(=O)[*:1])N[*:2]; X1 = CCCCCCCCCCC(=O)N[C@H](CO)C(=O)NC[C@@H](CC(=O)[*:1])N[*:2]; X4 = CCCCCCCCCCCC(=O)N[C@H](CO)C(=O)NC[C@H](CC(=O)[*:1])N[*:2]; X8 = CCCCCCCCCCC(=O)N[C@H](CO)C(=O)NC[C@H](CC(=O)[*:1])N[*:2]; X9 = CCCCCCCCNC(=O)[C@H](O)[C@@H](O)C(=O)*; Undecanoyl = CCCCCCCCCCC(=O)*; Lauroyl = CCCCCCCCCCCC(=O)*; Orn = NCCC[C@H](N)C(=O)O

Key:
[1] = RP-HPLC retention time as measure of hydrophilicity/hydrophobicity; type: physicochemical; details: chromatographic, Cosmosil 5C18-AR-II 4.6 x 150 mm, linear gradient 30–70% MeCN/H2O (0.1% TFA) for 30 min, 1 mL/min, UV 220 nm
Protocol: […] In all cases, the retention times of the (S)-Dab-containing peptides were shorter than those of the (R)-Dab-containing peptides, which were similar to those bearing L-Orn. The retention times of the cyclic peptides were shorter for Tat > D-Ser > L-Thr > L-Ser, while peptides bearing the undecanoic acid moiety eluted […] than those bearing the decanoic acid by about 2 min.

[2] = test system: S. cerevisiae (ATCC204504); type: cell-based; details: ATCC204504, 24 h
Protocol: Bacto yeast extract (0.63 g, 70161, Fluka, Barcelona, Spain), peptone (1.00 g, 26421, Mikuni, Japan), and glucose (1.00 g, 16806-25, Nacalai tesque, Japan) were added to H2O (50 mL) at room temperature and the mixture was heated to 60 °C. After 30 min, the mixture was sterilized by heating in an autoclave at 121 °C for 20 min.
DMSO (8 µL, 13406-55, Nacalai tesque, Japan) was added to YPD medium (750 µL). The test fungus culture solution (3 µL) was added to this solution (1.5 mL).
The inhibitor (each 1.0 mg; 3a–h, 4a–b, 5a–b, 6a–b, 7, 8) was dissolved in DMSO (40 µL).
The prepared test bacteria (50 µL) were placed in A1–A12 of a 96-well plate. Bk analogue (50 µL) was added to A1, pipetting was performed, and then 50 µL was extracted from A1 and placed in A2. This operation was repeated until A11, and 50 µL extracted from A11 was discarded. The well plate was closed and incubated at 30 °C. After 24 h, the MIC values were evaluated.

SMILES | tR [1] | MIC [2]
CCCCCCCCNC(=O)[C@H](O)[C@@H](O)C(=O)NC[C@@H]1CC(=O)N[C@H](CO)C(=O)N[C@H](Cc2ccc(O)cc2)C(=O)N[C@H](CC(N)=O)C(=O)NCC(=O)N[C@@H](CC(N)=O)C(=O)N[C@@H](CO)C(=O)N[C@@H](CC(N)=O)C(=O)N1 [Compound 5a, Cyclo-[(2R,3R)-2,3-dihydroxy-4-(octylamino)-4-oxobutanoic Acid-(S)-7-D-Ser-D-Tyr-D-Asn-Gly-Asn-Ser-Asn]] ([dS][dY][dN]GNSN; linker N-C via X11) | 5.3 min | >200 µg/mL
CCCCCCCCCCC(=O)N[C@H](C(=O)N[C@H]1CCCNC(=O)[C@H](CC(N)=O)NC(=O)[C@H](CO)NC(=O)[C@H](CC(N)=O)NC(=O)CNC(=O)[C@@H](CC(N)=O)NC(=O)[C@@H](Cc2ccc(O)cc2)NC(=O)[C@@H](CO)NC1=O)[C@@H](C)O [Compound 7, Cyclo-[Undecanoic Acid-Thr-Orn-D-Ser-D-Tyr-D-Asn-Gly-Asn-Ser-Asn]] (Undecanoyl-T[Orn][dS][dY][dN]GNSN; lactam 2-C) | 10.6 min | >200 µg/mL
CCCCCCCCCCC(=O)N[C@H](CO)C(=O)NC[C@@H]1CC(=O)N[C@H](CO)C(=O)N[C@H](Cc2ccc(O)cc2)C(=O)N[C@H](CC(N)=O)C(=O)NCC(=O)N[C@@H](CC(N)=O)C(=O)N[C@@H](CO)C(=O)N[C@@H](CC(N)=O)C(=O)N1 [Compound 3c, Cyclo-[Undecanoic Acid-D-Ser-(S)-7-D-Ser-D-Tyr-D-Asn-Gly-Asn-Ser-Asn]] ([dS][dY][dN]GNSN; linker N-C via X8) | 9.4 min | >200 µg/mL
CCCCCCCCNC(=O)[C@H](O)[C@@H](O)C(=O)N[C@H]1CCCNC(=O)[C@H](CC(N)=O)NC(=O)[C@H](CO)NC(=O)[C@H](CC(N)=O)NC(=O)CNC(=O)[C@@H](CC(N)=O)NC(=O)[C@@H](Cc2ccc(O)cc2)NC(=O)[C@@H](CO)NC1=O [Compound 8, Cyclo-[(2R,3R)-2,3-Dihydroxy-4-(octylamino)-4-oxobutanoic Acid-Orn-D-Ser-D-Tyr-D-Asn-Gly-Asn-Ser-Asn]] (X9-[Orn][dS][dY][dN]GNSN; lactam 1-C) | 5.8 min | >200 µg/mL
CCCCCCCCCCC(=O)N[C@@H](CO)C(=O)NC[C@H]1CC(=O)N[C@H](CO)C(=O)N[C@H](Cc2ccc(O)cc2)C(=O)N[C@H](CC(N)=O)C(=O)NCC(=O)N[C@@H](CC(N)=O)C(=O)N[C@@H](CO)C(=O)N[C@@H](CC(N)=O)C(=O)N1 [Compound 3e, Cyclo-[Undecanoic Acid-Ser-(R)-7-D-Ser-D-Tyr-D-Asn-Gly-Asn-Ser-Asn]] ([dS][dY][dN]GNSN; linker N-C via X6) | 9.4 min | >200 µg/mL
CCCCCCCCCCCC(=O)N[C@H](CO)C(=O)NC[C@H]1CC(=O)N[C@H](CO)C(=O)N[C@H](Cc2ccc(O)cc2)C(=O)N[C@H](CC(N)=O)C(=O)NCC(=O)N[C@@H](CC(N)=O)C(=O)N[C@@H](CO)C(=O)N[C@@H](CC(N)=O)C(=O)N1 [Compound 3h, Cyclo-[Dodecanoic Acid-D-Ser-(R)-7-D-Ser-D-Tyr-D-Asn-Gly-Asn-Ser-Asn]] ([dS][dY][dN]GNSN; linker N-C via X7) | 11.8 min | >200 µg/mL
CCCCCCCCCCC(=O)N[C@H](CO)C(=O)NC[C@H]1CC(=O)N[C@H](CO)C(=O)N[C@H](Cc2ccc(O)cc2)C(=O)N[C@H](CC(N)=O)C(=O)NCC(=O)N[C@@H](CC(N)=O)C(=O)N[C@@H](CO)C(=O)N[C@@H](CC(N)=O)C(=O)N1 [Compound 3g, Cyclo-[Undecanoic Acid-D-Ser-(R)-7-D-Ser-D-Tyr-D-Asn-Gly-Asn-Ser-Asn]] ([dS][dY][dN]GNSN; linker N-C via X1) | 9.6 min | >200 µg/mL
CCCCCCCCCCCC(=O)N[C@@H](CO)C(=O)NC[C@H]1CC(=O)N[C@H](CO)C(=O)N[C@H](Cc2ccc(O)cc2)C(=O)N[C@H](CC(N)=O)C(=O)NCC(=O)N[C@@H](CC(N)=O)C(=O)N[C@@H](CO)C(=O)N[C@@H](CC(N)=O)C(=O)N1 [Compound 3f, Cyclo-[Dodecanoic Acid-Ser-(R)-7-D-Ser-D-Tyr-D-Asn-Gly-Asn-Ser-Asn]] ([dS][dY][dN]GNSN; linker N-C via X10) | 11.8 min | 200 µg/mL (≈ 181 µM)
CCCCCCCCCCCC(=O)N[C@@H](CO)C(=O)NC[C@@H]1CC(=O)N[C@H](CO)C(=O)N[C@H](Cc2ccc(O)cc2)C(=O)N[C@H](CC(N)=O)C(=O)NCC(=O)N[C@@H](CC(N)=O)C(=O)N[C@@H](CO)C(=O)N[C@@H](CC(N)=O)C(=O)N1 [Compound 3b, Cyclo-[Dodecanoic Acid-Ser-(S)-7-D-Ser-D-Tyr-D-Asn-Gly-Asn-Ser-Asn]] ([dS][dY][dN]GNSN; linker N-C via X5) | 11.7 min | 100 µg/mL (≈ 90.4 µM)
CCCCCCCCCCC(=O)N[C@H](C(=O)NC[C@@H]1CC(=O)N[C@H](CO)C(=O)N[C@H](Cc2ccc(O)cc2)C(=O)N[C@H](CC(N)=O)C(=O)NCC(=O)N[C@@H](CC(N)=O)C(=O)N[C@@H](CO)C(=O)N[C@@H](CC(N)=O)C(=O)N1)[C@@H](C)O [Compound 4a, Cyclo-[Undecanoic Acid-Thr-(S)-7-D-Ser-D-Tyr-D-Asn-Gly-Asn-Ser-Asn]] ([dS][dY][dN]GNSN; linker N-C via X12) | 10.4 min | >200 µg/mL
CCCCCCCCCCCC(=O)N[C@H](CO)C(=O)NC[C@@H]1CC(=O)N[C@H](CO)C(=O)N[C@H](Cc2ccc(O)cc2)C(=O)N[C@H](CC(N)=O)C(=O)NCC(=O)N[C@@H](CC(N)=O)C(=O)N[C@@H](CO)C(=O)N[C@@H](CC(N)=O)C(=O)N1 [Compound 3d, Cyclo-[Dodecanoic Acid-D-Ser-(S)-7-D-Ser-D-Tyr-D-Asn-Gly-Asn-Ser-Asn]] ([dS][dY][dN]GNSN; linker N-C via X4) | 11.8 min | >200 µg/mL
CCCCCCCCCCC(=O)N[C@@H](CO)C(=O)NC[C@@H]1CC(=O)N[C@H](CO)C(=O)N[C@H](Cc2ccc(O)cc2)C(=O)N[C@H](CC(N)=O)C(=O)NCC(=O)N[C@@H](CC(N)=O)C(=O)N[C@@H](CO)C(=O)N[C@@H](CC(N)=O)C(=O)N1 [Compound 3a, Cyclo-[Undecanoic Acid-Ser-(S)-7-D-Ser-D-Tyr-D-Asn-Gly-Asn-Ser-Asn]] ([dS][dY][dN]GNSN; linker N-C via X13) | 9.3 min | >200 µg/mL

Results, then the compound that gave them:

tR [1] | MIC [2] | SMILES
11.2 min | >200 µg/mL | CCCCCCCCCCCC(=O)N[C@H](CO)C(=O)N[C@H]1CCCNC(=O)[C@H](CC(N)=O)NC(=O)[C@H](CO)NC(=O)[C@H](CC(N)=O)NC(=O)CNC(=O)[C@@H](CC(N)=O)NC(=O)[C@@H](Cc2ccc(O)cc2)NC(=O)[C@@H](CO)NC1=O [Compound 6d, Cyclo-[Dodecanoic Acid-D-Ser-Orn-D-Ser-D-Tyr-D-Asn-Gly-Asn-Ser-Asn]] (Lauroyl-[dS][Orn][dS][dY][dN]GNSN; lactam 2-C)
 | >200 µg/mL | CCCCCCCCCCC(=O)N[C@H](CO)C(=O)N[C@H]1CCCNC(=O)[C@H](CC(N)=O)NC(=O)[C@H](CO)NC(=O)[C@H](CC(N)=O)NC(=O)CNC(=O)[C@@H](CC(N)=O)NC(=O)[C@@H](Cc2ccc(O)cc2)NC(=O)[C@@H](CO)NC1=O [Compound 6c, Cyclo-[Undecanoic Acid-D-Ser-Orn-D-Ser-D-Tyr-D-Asn-Gly-Asn-Ser-Asn]] (Undecanoyl-[dS][Orn][dS][dY][dN]GNSN; lactam 2-C)
9.7 min | >200 µg/mL | CCCCCCCCCCC(=O)N[C@@H](CO)C(=O)N[C@H]1CCCNC(=O)[C@H](CC(N)=O)NC(=O)[C@H](CO)NC(=O)[C@H](CC(N)=O)NC(=O)CNC(=O)[C@@H](CC(N)=O)NC(=O)[C@@H](Cc2ccc(O)cc2)NC(=O)[C@@H](CO)NC1=O [Compound 6a, Cyclo-[Undecanoic Acid-Ser-Orn-D-Ser-D-Tyr-D-Asn-Gly-Asn-Ser-Asn]] (Undecanoyl-S[Orn][dS][dY][dN]GNSN; lactam 2-C)
12.1 min | >200 µg/mL | CCCCCCCCCCCC(=O)N[C@@H](CO)C(=O)N[C@H]1CCCNC(=O)[C@H](CC(N)=O)NC(=O)[C@H](CO)NC(=O)[C@H](CC(N)=O)NC(=O)CNC(=O)[C@@H](CC(N)=O)NC(=O)[C@@H](Cc2ccc(O)cc2)NC(=O)[C@@H](CO)NC1=O [Compound 6b, Cyclo-[Dodecanoic Acid-Ser-Orn-D-Ser-D-Tyr-D-Asn-Gly-Asn-Ser-Asn]] (Lauroyl-S[Orn][dS][dY][dN]GNSN; lactam 2-C)
